{"source": "paper PMC9519446", "about": "“Discovery of an Orally Active Benzoxaborole Prodrug Effective in the Treatment of Chagas Disease in Non-human Primates” (Nature microbiology, 2022)", "key": {"[1]": {"tested_on": "recombinant T. cruzi proteins", "assay": "Luminex-based multiplex serological assay (IgG to recombinant T. cruzi proteins)", "format": "in vivo, rhesus macaques (Macaca mulatta)", "conditions": "treated animal T19", "experimental": "(§1) Luminex-based multiplex serological assays were performed as previously described, [17]. For a number of smaller proteins, fusions of up to 2 individual genes are employed for some target proteins in order to expand the array of antibodies being detected while controlling costs and complexity of the assay. (TritrypDb.org identifiers: Tc1= fusion of TcBrA4_0116860 and TcYC6_0028190; Tc2= fusion of TcBrA4_0088420 and TcBrA4_0101960; Tc3 = fusion of TcBrA4_0104680 and TcBrA4_0101980; Tc4= fusion of TcBrA4_0028480 and TcBrA4_0088260; Tc5 = fusion of TcYC6_0100010 and TcBrA4_0074300; Tc7 = fusion of TcYC6_0083710 and TcBrA4_0130080; Tc8 = TcYC6_0037170; Tc11 = TcYC6_0124160; Tc17 = fusion of TcBrA4_0028230 and TcBrA4_0029760; Kn107 = TcCLB.508355.250; G10 = TcCLB.504199.20). Macaque antibody binding to individual beads in the Multiplex assays was detected with donkey anti-human IgG (H+L) conjugated to phycoerythrin (Jackson ImmunoResearch) in a 1:200 dilution."}, "[2]": {"assay": "Luminex-based multiplex serological assay (IgG to recombinant T. cruzi proteins)", "format": "in vivo, rhesus macaques (Macaca mulatta)", "conditions": "treated animal T19", "experimental": "as §1"}}, "data": [{"smiles": "Cc1c(C(=O)N[C@H](C(=O)OCC2CCOCC2)C(C)C)ccc2c1B(O)OC2", "note": "[AN15368]", "values": [{"measurement": "IgG response to Tc lysate (50)", "setting": "[1]; 2018-01-23", "value": 2937.3}, {"measurement": "IgG response to G10 (36)", "setting": "[1]; 2018-02-27", "value": 83.0}, {"measurement": "IgG response to Kn107 (20)", "setting": "[1]; 2018-02-27", "value": -14.5}, {"measurement": "IgG response to Tc1 (3)", "setting": "[1]; 2018-02-27", "value": 2826.0}, {"measurement": "IgG response to Tc2 (6)", "setting": "[1]; 2018-02-27", "value": 413.5}, {"measurement": "IgG response to Tc3 (11)", "setting": "[1]; 2018-02-27", "value": 17.5}, {"measurement": "IgG response to Tc4 (16)", "setting": "[1]; 2018-02-27", "value": 111.0}, {"measurement": "IgG response to Tc5 (22)", "setting": "[1]; 2018-02-27", "value": 6.8}, {"measurement": "IgG response to Tc7 (27)", "setting": "[1]; 2018-02-27", "value": 1831.8}, {"measurement": "IgG response to Tc8 (31)", "setting": "[1]; 2018-02-27", "value": 11208.3}, {"measurement": "IgG response to Tc11 (35)", "setting": "[1]; 2018-02-27", "value": 163.8}, {"measurement": "IgG response to Tc17 (51)", "setting": "[1]; 2018-02-27", "value": 1943.5}, {"measurement": "IgG response to Tc lysate (50)", "setting": "[1]; 2018-02-27", "value": 1833.0}, {"measurement": "IgG response to G10 (36)", "setting": "[1]; 2018-03-28", "value": -25.5}, {"measurement": "IgG response to Kn107 (20)", "setting": "[1]; 2018-03-28", "value": 5.5}, {"measurement": "IgG response to Tc1 (3)", "setting": "[1]; 2018-03-28", "value": 1762.3}, {"measurement": "IgG response to Tc2 (6)", "setting": "[1]; 2018-03-28", "value": 386.3}, {"measurement": "IgG response to Tc3 (11)", "setting": "[1]; 2018-03-28", "value": 60.0}, {"measurement": "IgG response to Tc4 (16)", "setting": "[1]; 2018-03-28", "value": 6.0}, {"measurement": "IgG response to Tc5 (22)", "setting": "[1]; 2018-03-28", "value": 32.5}, {"measurement": "IgG response to Tc7 (27)", "setting": "[1]; 2018-03-28", "value": 1344.3}, {"measurement": "IgG response to Tc8 (31)", "setting": "[1]; 2018-03-28", "value": 8779.3}, {"measurement": "IgG response to Tc11 (35)", "setting": "[1]; 2018-03-28", "value": 66.5}, {"measurement": "IgG response to Tc17 (51)", "setting": "[1]; 2018-03-28", "value": 1378.0}, {"measurement": "IgG response to Tc lysate (50)", "setting": "[1]; 2018-03-28", "value": 1572.0}, {"measurement": "IgG response to G10 (36)", "setting": "[1]; 2019-02-19", "value": -6.3}, {"measurement": "IgG response to Kn107 (20)", "setting": "[1]; 2019-02-19", "value": 9.8}, {"measurement": "IgG response to Tc1 (3)", "setting": "[1]; 2019-02-19", "value": 1092.5}, {"measurement": "IgG response to Tc2 (6)", "setting": "[1]; 2019-02-19", "value": 189.8}, {"measurement": "IgG response to Tc3 (11)", "setting": "[1]; 2019-02-19", "value": 63.8}, {"measurement": "IgG response to Tc4 (16)", "setting": "[1]; 2019-02-19", "value": 9.0}, {"measurement": "IgG response to Tc5 (22)", "setting": "[1]; 2019-02-19", "value": 22.0}, {"measurement": "IgG response to Tc7 (27)", "setting": "[1]; 2019-02-19", "value": 910.3}, {"measurement": "IgG response to Tc8 (31)", "setting": "[1]; 2019-02-19", "value": 5960.0}, {"measurement": "IgG response to Tc11 (35)", "setting": "[1]; 2019-02-19", "value": 51.0}, {"measurement": "IgG response to Tc17 (51)", "setting": "[1]; 2019-02-19", "value": 927.0}, {"measurement": "IgG response to Tc lysate (50)", "setting": "[1]; 2019-02-19", "value": 1211.8}, {"measurement": "IgG response to G10 (36)", "setting": "[1]; 2020-06-18", "value": -46.3}, {"measurement": "IgG response to Kn107 (20)", "setting": "[1]; 2020-06-18", "value": 15.0}, {"measurement": "IgG response to Tc1 (3)", "setting": "[1]; 2020-06-18", "value": 454.3}, {"measurement": "IgG response to Tc2 (6)", "setting": "[1]; 2020-06-18", "value": 7.3}, {"measurement": "IgG response to Tc3 (11)", "setting": "[1]; 2020-06-18", "value": 76.3}, {"measurement": "IgG response to Tc4 (16)", "setting": "[1]; 2020-06-18", "value": 6.0}, {"measurement": "IgG response to Tc5 (22)", "setting": "[1]; 2020-06-18", "value": 2.0}, {"measurement": "IgG response to Tc7 (27)", "setting": "[1]; 2020-06-18", "value": 373.3}, {"measurement": "IgG response to Tc8 (31)", "setting": "[1]; 2020-06-18", "value": 3159.8}, {"measurement": "IgG response to Tc11 (35)", "setting": "[1]; 2020-06-18", "value": 48.5}, {"measurement": "IgG response to Tc17 (51)", "setting": "[1]; 2020-06-18", "value": 793.0}, {"measurement": "IgG response to Tc lysate (50)", "setting": "[1]; 2020-06-18", "value": 640.8}, {"measurement": "IgG response to G10 (36)", "setting": "[1]; 2021-05-20", "value": 11.0}, {"measurement": "IgG response to Kn107 (20)", "setting": "[1]; 2021-05-20", "value": 65.5}, {"measurement": "IgG response to Tc1 (3)", "setting": "[1]; 2021-05-20", "value": 42.3}, {"measurement": "IgG response to Tc2 (6)", "setting": "[1]; 2021-05-20", "value": -7.8}, {"measurement": "IgG response to Tc3 (11)", "setting": "[1]; 2021-05-20", "value": 3.8}, {"measurement": "IgG response to Tc4 (16)", "setting": "[1]; 2021-05-20", "value": -20.3}, {"measurement": "IgG response to Tc5 (22)", "setting": "[1]; 2021-05-20", "value": 1.5}, {"measurement": "IgG response to Tc7 (27)", "setting": "[1]; 2021-05-20", "value": 293.3}, {"measurement": "IgG response to Tc8 (31)", "setting": "[1]; 2021-05-20", "value": 1814.0}, {"measurement": "IgG response to Tc11 (35)", "setting": "[1]; 2021-05-20", "value": 133.3}, {"measurement": "IgG response to Tc17 (51)", "setting": "[1]; 2021-05-20", "value": 399.3}, {"measurement": "IgG response to Tc lysate (50)", "setting": "[1]; 2021-05-20", "value": 384.5}, {"measurement": "IgG response to GFP (58)", "setting": "[2]; 2017-09-13", "value": 58.5}, {"measurement": "IgG response to GFP (58)", "setting": "[2]; 2017-11-17", "value": -25.0}, {"measurement": "IgG response to GFP (58)", "setting": "[2]; 2017-12-06", "value": 27.0}, {"measurement": "IgG response to GFP (58)", "setting": "[2]; 2017-12-20", "value": -24.3}, {"measurement": "IgG response to GFP (58)", "setting": "[2]; 2018-01-09", "value": 103.5}, {"measurement": "IgG response to GFP (58)", "setting": "[2]; 2018-01-23", "value": -17.8}, {"measurement": "IgG response to GFP (58)", "setting": "[2]; 2018-02-27", "value": -110.5}, {"measurement": "IgG response to GFP (58)", "setting": "[2]; 2018-03-28", "value": -15.8}, {"measurement": "IgG response to GFP (58)", "setting": "[2]; 2019-02-19", "value": -19.0}, {"measurement": "IgG response to GFP (58)", "setting": "[2]; 2020-06-18", "value": -50.3}, {"measurement": "IgG response to GFP (58)", "setting": "[2]; 2021-05-20", "value": -25.5}]}]}
